# Source: US20250361230A1, “LATS Inhibitors and Uses Thereof” (The USA, as Represented by the Secretary, Dept. of Heath …, priority 2022, published 2025)
# Like-named read-outs stand apart in the source and are kept apart here.
# Legend:
# Type in all cases: biochemical
# [1] = molecular target: T1, LATS1 (Homo sapiens, UniProt O95835); assay: RBC HotSpot kinase assay (33P-ATP, P81 filter-binding), LATS1; details: read-out: LATS1 IC50
# T1 sequence (O95835 1-1130): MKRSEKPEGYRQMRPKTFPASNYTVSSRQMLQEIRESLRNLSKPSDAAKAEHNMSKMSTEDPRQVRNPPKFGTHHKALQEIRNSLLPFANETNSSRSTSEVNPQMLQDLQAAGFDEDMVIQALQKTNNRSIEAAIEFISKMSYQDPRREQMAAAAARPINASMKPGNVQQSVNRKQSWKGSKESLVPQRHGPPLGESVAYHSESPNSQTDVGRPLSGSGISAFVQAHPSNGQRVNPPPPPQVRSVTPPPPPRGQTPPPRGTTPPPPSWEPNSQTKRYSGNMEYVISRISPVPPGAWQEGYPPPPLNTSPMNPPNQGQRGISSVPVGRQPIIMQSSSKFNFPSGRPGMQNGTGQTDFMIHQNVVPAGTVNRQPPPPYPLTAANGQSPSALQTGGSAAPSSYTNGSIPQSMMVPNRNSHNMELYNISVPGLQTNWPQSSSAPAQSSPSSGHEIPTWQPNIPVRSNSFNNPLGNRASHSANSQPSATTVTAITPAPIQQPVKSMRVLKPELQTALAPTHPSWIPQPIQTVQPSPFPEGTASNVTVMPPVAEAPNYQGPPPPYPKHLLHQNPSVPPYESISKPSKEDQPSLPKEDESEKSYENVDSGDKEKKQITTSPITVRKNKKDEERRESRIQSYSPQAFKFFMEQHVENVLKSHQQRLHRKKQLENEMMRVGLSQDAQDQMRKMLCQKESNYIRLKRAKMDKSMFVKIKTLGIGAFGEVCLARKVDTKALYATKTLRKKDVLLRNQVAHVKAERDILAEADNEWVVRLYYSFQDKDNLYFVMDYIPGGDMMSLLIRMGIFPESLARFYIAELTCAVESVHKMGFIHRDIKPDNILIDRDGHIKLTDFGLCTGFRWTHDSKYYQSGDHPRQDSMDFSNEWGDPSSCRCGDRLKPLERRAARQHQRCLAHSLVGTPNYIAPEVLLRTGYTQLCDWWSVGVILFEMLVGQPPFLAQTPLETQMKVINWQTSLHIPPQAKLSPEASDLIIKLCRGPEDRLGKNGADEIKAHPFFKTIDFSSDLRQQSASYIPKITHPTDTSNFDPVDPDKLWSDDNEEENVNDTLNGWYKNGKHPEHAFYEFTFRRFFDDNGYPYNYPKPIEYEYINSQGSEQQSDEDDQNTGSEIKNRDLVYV
# Summary of the method: (§1)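 Hepes pH 7.5/MgCl2/EGTA/Brij35/BSA/Na3VO4/DTT buffer, cofactors per kinase; cpd acoustically dispensed, 20 min preinc RT; start w/ 33P-ATP, 2 h RT; P81 filter readout; 10-pt singlet IC50.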
# [2] = molecular target: T2, LATS2 (Homo sapiens, UniProt Q9NRM7); assay: RBC HotSpot kinase assay (33P-ATP, P81 filter-binding), LATS2; details: read-out: LATS2 IC50
# T2 sequence (Q9NRM7 1-1088): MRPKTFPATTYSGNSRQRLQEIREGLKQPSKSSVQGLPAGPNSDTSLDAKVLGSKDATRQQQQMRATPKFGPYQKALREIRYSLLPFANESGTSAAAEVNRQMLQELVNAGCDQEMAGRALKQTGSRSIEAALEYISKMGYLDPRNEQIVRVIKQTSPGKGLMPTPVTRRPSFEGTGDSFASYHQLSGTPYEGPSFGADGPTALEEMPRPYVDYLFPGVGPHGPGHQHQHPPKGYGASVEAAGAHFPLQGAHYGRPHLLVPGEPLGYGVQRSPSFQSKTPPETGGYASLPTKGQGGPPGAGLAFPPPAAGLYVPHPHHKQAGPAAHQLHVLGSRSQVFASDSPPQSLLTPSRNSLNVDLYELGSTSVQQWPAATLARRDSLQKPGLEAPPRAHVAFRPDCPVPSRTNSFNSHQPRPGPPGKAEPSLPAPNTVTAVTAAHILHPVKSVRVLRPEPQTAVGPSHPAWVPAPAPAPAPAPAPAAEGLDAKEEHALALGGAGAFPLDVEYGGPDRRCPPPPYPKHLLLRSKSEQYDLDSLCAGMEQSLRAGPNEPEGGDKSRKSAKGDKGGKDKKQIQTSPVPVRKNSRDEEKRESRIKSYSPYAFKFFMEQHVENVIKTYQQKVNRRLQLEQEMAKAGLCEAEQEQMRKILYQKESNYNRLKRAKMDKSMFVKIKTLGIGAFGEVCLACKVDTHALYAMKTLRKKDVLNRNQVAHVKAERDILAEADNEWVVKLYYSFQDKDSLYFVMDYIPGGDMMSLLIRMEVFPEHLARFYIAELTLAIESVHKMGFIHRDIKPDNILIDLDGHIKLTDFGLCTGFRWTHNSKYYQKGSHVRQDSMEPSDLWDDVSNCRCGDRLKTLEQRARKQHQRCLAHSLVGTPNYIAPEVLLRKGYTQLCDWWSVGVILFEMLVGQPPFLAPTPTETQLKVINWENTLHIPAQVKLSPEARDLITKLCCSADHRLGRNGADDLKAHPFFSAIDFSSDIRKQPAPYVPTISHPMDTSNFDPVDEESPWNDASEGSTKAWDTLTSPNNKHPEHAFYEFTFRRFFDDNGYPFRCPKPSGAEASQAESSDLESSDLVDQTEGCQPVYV
# Summary of the method: as §1
# [3] = molecular target: AKT (Homo sapiens, UniProt P31749); assay: RBC HotSpot kinase assay (33P-ATP, P81 filter-binding), AKT; details: read-out: AKT IC50
# Summary of the method: as §1
# [4] = Table 28, biochemical kinase assay
# [5] = Table 32, biochemical kinase assay
# AKT, sequence (P31749 whole entry): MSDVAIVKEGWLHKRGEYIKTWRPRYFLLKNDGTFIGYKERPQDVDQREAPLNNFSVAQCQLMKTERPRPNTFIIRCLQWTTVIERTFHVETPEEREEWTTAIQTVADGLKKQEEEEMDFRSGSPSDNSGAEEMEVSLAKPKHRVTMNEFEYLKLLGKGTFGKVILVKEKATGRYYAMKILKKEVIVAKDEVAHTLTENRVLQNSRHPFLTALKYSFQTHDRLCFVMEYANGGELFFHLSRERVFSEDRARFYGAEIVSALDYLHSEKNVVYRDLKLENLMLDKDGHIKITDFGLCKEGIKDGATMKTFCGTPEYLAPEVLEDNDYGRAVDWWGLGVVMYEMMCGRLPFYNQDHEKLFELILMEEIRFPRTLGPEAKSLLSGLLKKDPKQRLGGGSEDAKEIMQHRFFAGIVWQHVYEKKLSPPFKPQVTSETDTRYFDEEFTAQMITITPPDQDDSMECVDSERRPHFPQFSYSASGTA
"IC50 [1, 5] [nM]","IC50 [2, 5] [nM]","IC50 [3, 5] [nM]",SMILES,further results
1.8,2.1,0.6,"NCC(O)(c1ccc(Cl)cc1)c1ccc(-c2ccnc3[nH]ccc23)cc1 (stereo not drawn) [Compound 1001, 1-(4-(1H-pyrrolo[2,3-b]pyridin-4-yl)phenyl)-2-amino-1-(4-chlorophenyl)ethan-1-ol]",
5.7,11.1,4.6,"NCC(O)(c1ccc(Cl)cc1)c1ccc(-c2ccnc3[nH]cc(F)c23)cc1 (stereo not drawn) [Compound 1002, 2-amino-1-(4-chlorophenyl)-1-(4-(3-fluoro-1H-pyrrolo[2,3-b]pyridin-4-yl)phenyl)ethan-1-ol]",
4,5.3,18.1,"COC(=O)c1c[nH]c2nccc(-c3ccc(C(O)(CN)c4ccc(Cl)cc4)cc3)c12 (stereo not drawn) [Compound 1004, Methyl 4-(4-(2-amino-1-(4-chlorophenyl)-1-hydroxyethyl)phenyl)-1H-pyrrolo[2,3-b]pyridine-3-carboxylate]",
5.1,8.9,1.7,"NCC(O)(c1ccc(Cl)cc1)c1ccc(-c2ccnc3[nH]cc(Br)c23)cc1 (stereo not drawn) [Compound 1005, 2-amino-1-(4-(3-bromo-1H-pyrrolo[2,3-b]pyridin-4-yl)phenyl)-1-(4-chlorophenyl)ethan-1-ol]",

# The next lines start with the molecule.
SMILES,"IC50 [1, 5] [nM]","IC50 [2, 5] [nM]","IC50 [3, 5] [nM]",further results
"OC1(c2ccc(-c3ccnc4[nH]cc(F)c34)cc2)CC2(CNC2)C1 [Compound 319, 6-(4-(3-fluoro-1H-pyrrolo[2,3-b]pyridin-4-yl)phenyl)-2-azaspiro[3.3]heptan-6-ol]",,,,"IC50 [1, 4]: 66 nM; IC50 [2, 4]: 29.3 nM; IC50 [3, 4]: 378 nM"
"NCC(O)(c1ccc(Cl)cc1)c1ccc(-c2ccnc3[nH]cc(-c4ccccc4)c23)cc1 (stereo not drawn) [Compound 1006, 2-amino-1-(4-chlorophenyl)-1-(4-(3-phenyl-1H-pyrrolo[2,3-b]pyridin-4-yl)phenyl)ethan-1-ol]",23,20,230,
"NCC(O)(c1ccc(Cl)cc1)c1ccc(-c2ccnc3[nH]cc(-c4cccnc4)c23)cc1 (stereo not drawn) [Compound 1007, 2-amino-1-(4-chlorophenyl)-1-(4-(3-(pyridin-3-yl)-1H-pyrrolo[2,3-b]pyridin-4-yl)phenyl)ethan-1-ol]",4.3,6.1,35.2,
"NCC(O)(c1ccc(Cl)cc1)c1ccc(-c2ccnc3[nH]cc(Br)c23)nc1 (stereo not drawn) [Compound 1011, 2-amino-1-(6-(3-bromo-1H-pyrrolo[2,3-b]pyridin-4-yl)pyridin-3-yl)-1-(4-chlorophenyl)ethan-1-ol]",0.9,< 0.5,1,
"NCC(=O)NCC(O)(c1ccc(Cl)cc1)c1ccc(-c2ccnc3[nH]cc(Cl)c23)cc1 (stereo not drawn) [Compound 1021, 2-amino-N-(2-(4-(3-chloro-1H-pyrrolo[2,3-b]pyridin-4-yl)phenyl)-2-(4-chlorophenyl)-2-hydroxyethyl) acetamide]",3.7,1.6,< 0.5,
"Cc1cc(-c2ccnc3[nH]cc(C#N)c23)cc(F)c1[C@@]1(O)[C@H](C)CN(C2CCS(=O)(=O)CC2)C[C@@H]1C [Compound 2002, 4-(4-((3S,4s,5R)-1-(1,1-dioxidotetrahydro-2H-thiopyran-4-yl)-4-hydroxy-3,5-dimethylpiperidin-4-yl)-3-fluoro-5-methylphenyl)-1H-pyrrolo[2,3-b]pyridine-3-carbonitrile]",,,,IC50 ([1]; biochemical kinase inhibition): 10.9 nM; IC50 ([2]; biochemical kinase inhibition): 4.6 nM; IC50 ([3]; biochemical kinase inhibition): 188 nM
"Cc1cc(-c2ccnc3[nH]cc(C#N)c23)cc(F)c1[C@@]1(O)[C@H](C)CN(C(=O)CN)C[C@@H]1C [Compound 2004, 4-(3-fluoro-4-((3S,4s,5R)-1-glycyl-4-hydroxy-3,5-dimethylpiperidin-4-yl)-5-methylphenyl)-1H-pyrrolo[2,3-b]pyridine-3-carbonitrile]",,,,IC50 ([1]; biochemical kinase inhibition): 6.7 nM; IC50 ([2]; biochemical kinase inhibition): 2 nM; IC50 ([3]; biochemical kinase inhibition): 118 nM
"Cc1cc(-c2ccnc3[nH]cc(C#N)c23)ccc1[C@@]1(O)[C@H](C)CN(C(=O)CN)C[C@@H]1C [Compound 2005, 4-(4-((3S,4s,5R)-1-glycyl-4-hydroxy-3,5-dimethylpiperidin-4-yl)-3-methylphenyl)-1H-pyrrolo[2,3-b]pyridine-3-carbonitrile]",,,,IC50 ([1]; biochemical kinase inhibition): 3.3 nM; IC50 ([2]; biochemical kinase inhibition): 1.2 nM; IC50 ([3]; biochemical kinase inhibition): 22 nM
